# Experimental data: US4613695A, “N-nitroso compounds and compositions containing such compounds” (Aktiebolaget Leo, priority 1982, dated 1986)
# Read-outs that look alike come from different tables or passages of the source.
# System: Lymphatic leukemia L1210
# Test: Lymphatic leukemia L1210 survival test (survival time increase, long term survival, cure potential)
# Format: in vivo, Female BDF1 mice
# Settings: for minimal effective dose: Mus musculus, L1210, po; for minimal effective dose / Dose or dose range for cure / Maximum effective dose (survival time increase): p.o. once; for T.I.s (long term survival; max.effect.dose/min.effect.dose): long term survival T·100/To >20%; for Dose or dose range for cure: ≥90% long term survivors on day 60; for T.I.s = max.effect.dose/min.effect.dose: survival time increase, t·100/c ≥125%; for median survival time percent of control: dose of 125 mg/kg, p.o., called significant activity
# Protocol: The experimental design and interpretation of the results are in accordance with the standards set by the CCNSC (see reference (16)) and by the DR&D (see reference (17)).
# Experimental animals: Female BDF1 mice
# Tumour implants: 10^5 tumour cells implanted intraperitoneally (i. p.)
# Therapy: The compounds were administered p. o. once on the day following the implantation.
# Termination: The animals were killed on the 60th day after the implantation. Living animals on the 60th day are termed long term survivors.
# (a) Evaluation of therapeutic dose range for survival time increase: Survival times at various dose levels are determined, and the survival time of the test animals (t) is expressed as the percentage of that of the control animals (c):
# The maximum effective dose and the minimum effective dose required to achieve t·100/c≥125% are determined, and a therapeutic index as defined below is calculated:
# T. I.s =max.effect.dose/min.effect.dose.
# (b) Evaluation of therapeutic dose range for long term survival: Long time survival is determined at various dose levels and is expressed as surviving test animals on day 60 (T) as the percentage of that of the total number of test animals (To):
# The maximum effective dose and the minimum effective dose to achieve long term survival T·100/To >20% are determined and a therapeutic index, T. I.1 s is calculated:
# T. I.1s =max.effect.dose/min.effect.dose.
# (c) Evaluation of cure potential: The normal survival time for test animals receiving no therapeutic treatment is 9-11 days. Surviving test animals on the 60th day after implantation showing no sign of tumour presence are regarded as cured animals. Long term survival is determined as under (b) above, and the effective dose or dose range to achieve a long term survival T·100/To ≥90% is determined as an evaluation of the cure potential.
# [1] = 1440 h, >20% long term survivors on day 60, read-out: Minimum effective dose (long term survival)
# [2] = median survival time percent of control ≥ 125%, read-out: Minimum effective dose (survival time increase)
# [3] = median survival time percent of control ≥ 125%
smiles,measurement,setting,value
"COCCNS(=O)(=O)CCNC(=O)N(CCCl)N=O [1:8, 1-(2-chloroethyl)-3-(2-/2-methoxyethylaminosulfonyl/ethyl)-1-nitrosourea]",minimal effective dose,[1],31 mg/kg
same,T.I.s (long term survival; max.effect.dose/min.effect.dose),,2
same,Dose or dose range for cure,,31 to 63 mg/kg
"CCCCNS(=O)(=O)CCNC(=O)N(CCCl)N=O [1:9, 3-(2-/butylaminosulfonyl/ethyl)-1-(2-chloroethyl)-1-nitrosourea]",minimal effective dose,[1],63 mg/kg
same,minimal effective dose,[2],16 mg/kg
same,T.I.s (long term survival; max.effect.dose/min.effect.dose),,2
same,Maximum effective dose (survival time increase),[3],125 mg/kg
same,T.I.s = max.effect.dose/min.effect.dose,,8
same,Dose or dose range for cure,,63 mg/kg
"CC(C)(C)NS(=O)(=O)CCNC(=O)N(CCCl)N=O [1:10, 3-(2-/t-butylaminosulfonyl/ethyl)-1-(2-chloroethyl)-1-nitrosourea]",median survival time percent of control,,≥ 125%
"O=NN(CCCl)C(=O)NCCS(=O)(=O)NC1CCCCC1 [1:11, 1-(2-chloroethyl)-3-(2-/cyclohexylaminosulfonyl/ethyl)-1-nitrosourea]",minimal effective dose,[1],63 mg/kg
same,minimal effective dose,[2],31 mg/kg
same,T.I.s (long term survival; max.effect.dose/min.effect.dose),,2
same,Maximum effective dose (survival time increase),[3],250 mg/kg
same,T.I.s = max.effect.dose/min.effect.dose,,8
same,Dose or dose range for cure,,125 mg/kg
"O=NN(CCCl)C(=O)NCCS(=O)(=O)N(CCO)CCO [1:12, 3-(2-/bis(2-hydroxyethyl)aminosulfonyl/ethyl)-1-(2-chloroethyl)-1-nitrosourea]",Dose or dose range for cure,,125 mg/kg
"CCCCC(C)NS(=O)(=O)CCNC(=O)N(CCCl)N=O (stereo not shown) [1:13, 1-(2-chloroethyl)-3-(2-/1-methylpentylaminosulfonyl/ethyl)-1nitrosourea]",median survival time percent of control,,≥ 125%
"CC(C)(CO)NS(=O)(=O)CCNC(=O)N(CCCl)N=O [1:16, 1-(2-chloroethyl)-3-(2-/1,1-dimethyl-2-hydroxyethylaminosulfonyl/ethyl)-1-nitrosourea]",Dose or dose range for cure,,250 mg/kg
"CN(Cc1ccccc1)S(=O)(=O)CCNC(=O)N(CCCl)N=O [1:17, 3-(2-/N-benzyl-N-methylaminosulfonyl/ethyl)-1-(2-chloroethyl)-1-nitrosourea]",minimal effective dose,[1],125 mg/kg
same,minimal effective dose,[2],63 mg/kg
same,T.I.s (long term survival; max.effect.dose/min.effect.dose),,2
same,Maximum effective dose (survival time increase),[3],500 mg/kg
same,T.I.s = max.effect.dose/min.effect.dose,,8
"CN(c1ccccc1)S(=O)(=O)CCNC(=O)N(CCCl)N=O [1:18, 1-(2-chloroethyl)-3-(2-/N-methyl-N-phenylaminosulfonyl/ethyl)-1-nitrosourea]",median survival time percent of control,,≥ 125%
"CON(C)S(=O)(=O)CCNC(=O)N(CCCl)N=O [1:20, 1-(2-chloroethyl)-3-(2-/N-methoxy-N-methylaminosulfonyl/ethyl)-1-nitrosourea]",minimal effective dose,[1],63 mg/kg
same,minimal effective dose,[2],16 mg/kg
same,T.I.s (long term survival; max.effect.dose/min.effect.dose),,2
same,Maximum effective dose (survival time increase),[3],125 mg/kg
same,T.I.s = max.effect.dose/min.effect.dose,,8
same,Dose or dose range for cure,,63 to 125 mg/kg
"CN(C)S(=O)(=O)CCCNC(=O)N(CCCl)N=O [1:21, 1-(2-chloroethyl)-3-(3-/dimethylaminosulfonyl/propyl)-1-nitrosourea]",minimal effective dose,[1],31 mg/kg
same,minimal effective dose,[2],8 mg/kg
same,T.I.s (long term survival; max.effect.dose/min.effect.dose),,2
same,Maximum effective dose (survival time increase),[3],63 mg/kg
same,T.I.s = max.effect.dose/min.effect.dose,,8
same,Dose or dose range for cure,,31 to 63 mg/kg
"CN(C)S(=O)(=O)CCNS(=O)(=O)CCNC(=O)N(CCCl)N=O [1:23, 1-(2-chloroethyl)-3-(2-/2-(dimethylaminosulfonyl)ethylaminosulfonyl/ethyl)-1-nitrosourea]",minimal effective dose,[1],63 mg/kg
same,T.I.s (long term survival; max.effect.dose/min.effect.dose),,2
same,Dose or dose range for cure,,125 mg/kg
